This data set is described as follows: Brain concentration after oral administration in rats (BBB passage). The data set is classed as in vivo. The procedure: In the pharmacokinetic analysis, a total of […] female SD rats aged 8 weeks from Zhejiang Academy of Medical Sciences (Hangzhou, China) (permit number: ZJU20240191) were used. A total of 15 rats were randomly divided into the following groups: (i) control group, (ii) TBG096 (14 mg/kg) oral administration group, and (iii) TBG096 (14 mg/kg) intravenous administration group. TBG096 was administered orally (dissolved in soybean oil) or intravenously (dissolved in Milli-Q water containing 2% Tween 80 and 5% ethanol) at 14 mg/kg after 12 h of fasting. Then, the blood from the posterior ocular venous plexus of rats was taken at 5, 15, 30, 60, 90, 120, 180, and 240 min after administration. […]
The collected blood was placed in a centrifuge tube (containing 20 µL heparin sodium solution) and centrifuged at 3000 rpm for 10 min to obtain a supernatant (plasma). […] The residue was dissolved in 100 µL of mobile phase, vortexed for 0.5 min, and centrifuged at 12,000 rpm for 3 min, and the supernatant was then prepared for HPLC analysis (Supersil Phenyl 5 µm (4.6 × 200 mm), elution with MeCN/H2O containing 0.1% formic acid (plasma samples: 57% MeCN/H2O, brain samples: 56% MeCN/H2O) for 30 min, flow rate: 1 mL/min, sample size: 20 µL, detected at 284 nm) and HR ESI-TOF-MS analysis.

Molecules are shown by their SMILES.

As to `O=C(SCCCCCCSCCCC(F)(F)F)c1cccc(O)c1O` [TBG096], the “ability to cross the BBB” value (brain samples 15 min after oral 14 mg/kg, HPLC and HR ESI-TOF-MS) was “has the ability to cross the BBB”. Besides, the concentration at 15 min (female, Sprague-Dawley, rat, brain, 15 min after single oral dose 14 mg/kg, rats) came out at 81.7 ± 6.81 ng/g.

For the origin of these results see article PMC11943016, “TBG096 Ameliorates Memory Deficiency in AD Mouse Model via Promoting Neurogenesis and Regulation of Hsc70/HK2/PKM2/LAMP2A Signaling Pathway” (International Journal of Molecular Sciences, 2025).
